From the supplement of paper PMC8633005

Legend:
Test in all cases: drug sensitivity score (DSS) (DSS (unitless, 0-50 scale)); higher = more sensitive (stronger viability inhibition); extreme values may be limits of the assay
Settings in all cases: 72 h; culture: 2D
[1] = tested on: FM-MEL-3
Method in brief: (§1)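 Patient-derived melanoma cultures (1000–1500 cells per well) and melanoma cell lines were grown in 2D in 384-well plates holding a 527-compound oncology library. Each compound was dissolved in DMSO or water and tested at five concentrations spanning a 10,000-fold range. After 72 h at 37 °C, viability was read by CellTiter-Glo luminescence. A drug sensitivity score, a modified area-under-curve measure, was derived from dose-response curves fitted in the in-house Breeze software.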

[2] = tested on: FM-MEL-6
Method in brief: as §1

[3] = tested on: FM-MEL-2
Method in brief: as §1

[4] = tested on: SK-MEL-28
Method in brief: as §1

[5] = tested on: SK-MEL-2
Method in brief: as §1

[6] = tested on: Bowes
Method in brief: as §1

[7] = tested on: WM852
Method in brief: as §1

[8] = tested on: WM165
Method in brief: as §1

| Structure (SMILES) | drug sensitivity score [1] | drug sensitivity score [2] | drug sensitivity score [3] | drug sensitivity score [4] | drug sensitivity score [5] | drug sensitivity score [6] | drug sensitivity score [7] | drug sensitivity score [8] |
| --- | --- | --- | --- | --- | --- | --- | --- | --- |
| CC(=O)N(O)CCCCCNC(=O)CCC(=O)N(O)CCCCCNC(=O)CCC(=O)N(O)CCCCCN [Deferoxamine] | 0 | 1.8 | 0.6 | 0.9 | 0 | 2.9 | 4.9 | 3.8 |
| C[C@@H]1C[C@H]2[C@@H]3CCC4=CC(=O)C=C[C@]4(C)[C@@]3(F)[C@@H](O)C[C@]2(C)[C@@]1(O)C(=O)CO [Dexamethasone] | 0 | 0 | 0 | 0 | 0 | 0 | 0 | 0 |
| C[C@H]1O[C@@H](O[C@H]2[C@@H](O)C[C@H](O[C@H]3[C@@H](O)C[C@H](O[C@H]4CC[C@@]5(C)[C@H](CC[C@@H]6[C@@H]5C[C@@H](O)[C@]5(C)[C@@H](C7=CC(=O)OC7)CC[C@]65O)C4)O[C@@H]3C)O[C@@H]2C)C[C@H](O)[C@@H]1O [Digoxin] | 13.3 | 9.7 | 3.3 | 6.6 | 5.9 | 12.9 | 10.4 | 10.6 |
| CCc1cnn2c(NCc3ccc[n+]([O-])c3)cc(N3CCCC[C@H]3CCO)nc12 [Dinaciclib] | 18.5 | 21.7 | 13.1 | 20.2 | 21.2 | 30.7 | 20 | 22.4 |
| CC(=O)O[C@@]12CO[C@@H]1C[C@H](O)[C@@]1(C)C(=O)[C@H](O)C3=C(C)[C@@H](OC(=O)[C@H](O)[C@@H](NC(=O)OC(C)(C)C)c4ccccc4)C[C@@](O)([C@@H](OC(=O)c4ccccc4)[C@H]21)C3(C)C [Docetaxel] | 10.9 | 14.7 | 6.5 | 12.7 | 16.4 | 28.8 | 20.7 | 25.1 |
| Cc1ccc(-n2nc(C(C)(C)C)cc2NC(=O)Nc2ccc(OCCN3CCOCC3)c3ccccc23)cc1 [Doramapimod] | 1.7 | 0.8 | 1.4 | 0 | 0 | 0 | 0 | 3.4 |
| CN1CCN(c2ccc3nc(-c4c(N)c5c(F)cccc5[nH]c4=O)[nH]c3c2)CC1 [Dovitinib] | 0 | 0 | 0 | 0 | 0 | 0.5 | 0 | 0.3 |
| COc1cccc2c1C(=O)c1c(O)c3c(c(O)c1C2=O)C[C@@](O)(C(=O)CO)C[C@@H]3O[C@H]1C[C@H](N)[C@H](O)[C@H](C)O1 [Doxorubicin] | 6.8 | 7.8 | 6.7 | 7.8 | 4.9 | 4.2 | 4.8 | 15.1 |
| C[C@H](Nc1ncnc2nc[nH]c12)c1cc2cccc(Cl)c2c(=O)n1-c1ccccc1 [Duvelisib] | 0 | 0 | 2.3 | 1.3 | 0 | 0 | 0 | 0 |
| Cc1ccc(NS(=O)(=O)c2cccc(C#N)c2)c2[nH]cc(C#N)c12 [E7820] | 5.5 | 0.7 | 1.9 | 0 | 0 | 0 | 0 | 5.3 |
| Cc1cc(Nc2cc(N3CCN(C)CC3)nc(/C=C/c3ccccc3)n2)n[nH]1 [ENMD-2076] | 7.8 | 6.4 | 7.6 | 7.9 | 8.9 | 11.1 | 7.5 | 12.6 |
| Cc1cc(C)c(CNC(=O)c2cc(-c3ccc(CN4CCOCC4)cc3)cc3c2cnn3C2CCCC2)c(=O)[nH]1 [EPZ-5687] | 2.8 | 0.5 | 0 | 0 | 0 | 2.6 | 0 | 0 |
| NC(=O)/C(=C/n1cnc(-c2cc(C(F)(F)F)cc(C(F)(F)F)c2)n1)c1cncnc1 [Eltanexor] | 18.4 | 11.8 | 9.5 | 14 | 15.2 | 14.8 | 11.2 | 19.3 |
| CC(C)(O)CNc1nc(Nc2ccnc(C(F)(F)F)c2)nc(-c2cccc(C(F)(F)F)n2)n1 [Enasidenib] | 0 | 0 | 3.1 | 0 | 1.9 | 0 | 0 | 0 |
| COC(=O)N[C@@H](C)CNc1nccc(-c2cn(C(C)C)nc2-c2cc(Cl)cc(NS(C)(=O)=O)c2F)n1 [Encorafenib] | 1.9 | 0 | 1.3 | 19.6 | 1.1 | 0.5 | 1.4 | 19.2 |
| C[C@@H]1CN(C(=O)c2ccc(NC(=O)c3cc(O[C@H](C)c4c(Cl)ccc(F)c4Cl)c(N)nn3)cc2)C[C@H](C)N1 [Ensartinib] | 2.6 | 1.5 | 0.5 | 0 | 0 | 1.6 | 0.4 | 0.7 |
| Nc1ccccc1NC(=O)c1ccc(CNC(=O)OCc2cccnc2)cc1 [Entinostat] | 6.6 | 8.2 | 4.5 | 8.7 | 7.9 | 1.8 | 0.1 | 11.4 |
| c1cn2cc(-c3ccc4cn[nH]c4c3)nc(Nc3ccc(N4CCOCC4)cc3)c2n1 [Entospletinib] | 0 | 0 | 6.7 | 0 | 0 | 0 | 0 | 0 |
| CN1CCN(c2ccc(C(=O)Nc3n[nH]c4ccc(Cc5cc(F)cc(F)c5)cc34)c(NC3CCOCC3)c2)CC1 [Entrectinib] | 0 | 0 | 0 | 0 | 0 | 0 | 0 | 0 |
| CNC(=O)c1ccc(N2C(=S)N(c3ccc(C#N)c(C(F)(F)F)c3)C(=O)C2(C)C)cc1F [Enzalutamide] | 0.3 | 0 | 0.2 | 0 | 0 | 0.1 | 0.9 | 0 |
